Assay results: patent US6177474A, “Polyhydroxyphenol derivatives and preventive and therapeutic agents for bone and cartilage diseases containing the same” (Hoechst Marion Roussel, priority 1996, dated 2001)

Tested on: bone cells containing osteoclast cells
Assay: Pit formation assay: inhibition of osteolysis (absorption pits on ivory slices)
Format: cell-based, ICR mice
Conditions: for inhibition at 10 µM: Mus musculus, Osteoclast, read-out: Ratio of inhibition (%); for inhibition at 10 µM / Ratio of inhibition (%): 0% = pits with rPTH (1×10^-8 M) without medicine, 100% = no absorption pit; for Ratio of inhibition (%): 4320 min
Protocol: ICR mice 11-12 days old (purchased from Charles River Japan) were euthanized by anesthesia with ether and immediately immersed in 70% ethanol for disinfection. By the use of ophthalmologist scissors and pincers sterilized in advance with ethanol, femur and tibia were excised from the sacrificed mice and chopped into small pieces in an α-MEM culture medium (purchased from Flow Laboratories Corp.). containing 5% FBS (purchased from Irvine Scientific Corp.), 100 U/ml penicillin and 100 μg/ml streptomycin. The supernatant formed consequently was recovered by pipeting, cleaned with the culture broth, and suspended in a 5% FBS α-MEM culture broth to obtain bone cells containing osteoclast cells. The supernatant of a bone cell-floating liquid formed after 3 minutes' standing of the bone cells at rest was recovered and passed through a mesh (cell strainer, 70 μm, purchased from Falcon Corp.). The filtrate was adjusted to a cell concentration of 1×10^7 /ml and used for the pit formation assay.
An ivory piece was cut into slices, 150 μm in thickness, by the use of a precision low-speed cutting machine (purchased from Buehler Corp.). Cylindrical holes, 6 mm in diameter, were perforated in the slices by the use of a one-hole punch. The ivory slices were immersed in 70% ethanol and subjected therein to an ultrasonic cleaning treatment twice each for five minutes and washed three times with a sterilized PBS and twice with the culture medium. The ivory slices were set in place on a 96-hole culture plate (purchased from Falcon Corp.). The perforated ivory slices on the culture plate, with a culture broth containing a given compound of the present invention prepared in a concentration of 2×10^-5 M added in a fixed volume of 100 μl (final medicine concentration 1×10^-5 M) to each of the holes and a culture broth containing prepared bone cells in a concentration of 1×10^7 /ml placed in each of the holes, were cultured for three days in a 10% CO2 incubator at 37° C. After the culture, the ivory slices were placed in an aqueous 2 N sodium hydroxide and the cells on the slices were removed by the use of a rubber spatula. The ivory slices were washed with water and methanol. The absorption pits formed in the ivory slices were dyed with Coomassie Brilliant Blue and were counted under a microscope. Though the numbers of absorption pits were naturally found to disperse among test lots, depending on the ratios of varying specie s of cells in the bone cell suspensions and the lots of animals used, satisfactorily uniform test results were found in one and the same test lot. The ratio of inhibition of osteolysis was calculated on the 100% scale, in which 0% stands for the number of absorption pits found in the culture broth in the presence of rPTH (1×10^-8 M) and in the absence of a medicine and 100% for total absence of absorption pit.
The test described above was performed in a total of ten runs, Tests 1-10.
In the columns titled "Added medicine No." found in Table 2 and Table 3, the symbol (-) denotes a control involving no addition of medicine and the numerical No. denotes the No. of the compound mentioned above.

[1] = compound 10^-5 M, 3 days culture at 37° C., 10% CO2, control per test run given as (-)

| Compound | No. of absorption pits (Mean ± SD) (72 h, 10 µM) | inhibition at 10 µM (72 h, compound 10^-5 M) [%] | No. of absorption pits (Mean ± SD) [1] | Ratio of inhibition (%) (compound 10^-5 M, 10 µM) |
| --- | --- | --- | --- | --- |
| CC(C)=CCc1c(O)c(O)cc(C(=O)CC(C)C)c1O [Compound 26, {3-(3-methyl-2-butenyl)-2,4,5-trihydroxyphenyl} (2-methylpropyl) ketone] | 29.3 ± 4.8 | 85.5 | – | – |
| CC(C)=CCc1cc(C(=O)CC(C)C)c(O)cc1O [Compound 55, {2,4-dihydroxy-5-(3-methyl-2-butenyl)phenyl} (2-methylpropyl)ketone] | 15.8 ± 3.3 | 90.8 | – | – |
| CC(C)CC(=O)c1c(O)c(Cc2ccccc2)c(O)c(Cc2ccccc2)c1O [Compound 34, {3,5-bisbenzyl-2,4,6-trihydroxyphenyl} (2-methylpropyl) ketone] | 8.2 ± 1.9 | 95.9 | – | – |
| Cc1cc(O)cc(O)c1C(=O)CC(C)C [Compound 47, (2,4-dihydroxy-6-methylphenyl) (2-methylpropyl) ketone] | 179.8 ± 23.8 | 10.9 | – | – |
| CC(C)=CCc1c(O)cc(C)c(C(=O)CC(C)C)c1O [Compound 49, {2,4-dihydroxy-6-methyl-3-(3-methyl-2-butenyl)phenyl} (2-methylpropyl) ketone] | 44.3 ± 5.4 | 78 | – | – |
| CC(C)=CCc1c(O)cc(O)c(C(=O)Cc2ccccc2)c1O [Compound 42, {3-(3-methyl-2-butenyl)-2,4,6-trihydroxyphenyl} (phenylmethyl) ketone] | 31.7 ± 3.6 | 74.7 | – | – |
| {6-(3-methyl-2-butenyl)-2,4,5-trihydroxyphenyl} (2-methylpropyl) ketonemono(3-methyl-2-butenyl) ether [Compound 27] | – | – | 38.8 ± 6.6 | 80.8 |
| (2,4,5-trihydroxyphenyl) (2-methylpropyl) ketonemono(3-methyl-2-butenyl) ether [Compound 28] | – | – | 61.3 ± 5.5 | 69.6 |
| CC(C)CC(=O)C1=C(O)C(Cc2ccccc2)=C(O)C(Cc2ccccc2)(Cc2ccccc2)C1=O [Compound 36, 2,2,4-trisbenzyl-6-(3-methyl-1-oxobutyl)-3,5-dihydroxycyclohexa-3,5-dienone] | 3.8 ± 0.9 | 98.1 | – | – |
| CC(C)=CCOc1cc(C)c(C(=O)CC(C)C)c(O)c1 [Compound 48, {2-hydroxy-6-methyl-4-(3-methyl-2-butenyloxy)phenyl} (2-methylpropyl) ketone] | 85.2 ± 7.5 | 57.8 | – | – |
| CC(C)=CCCC(C)=CCC1(CC=C(C)CCC=C(C)C)C(=O)C(C(=O)Cc2ccccc2)=C(O)C=C1O (stereo not drawn) [Compound 45, 3,5-dihydroxy-6-(phenylacetyl)-2,2-bis(3,7-dimethyl-2,6-octadienyl)cyclohexa-3,5-dienone] | 8.2 ± 1.8 | 96.4 | – | – |
| O=C(Cc1ccccc1)c1c(O)cc(O)cc1O [Compound 38, (phenylmethyl) (2,4,6-trihydroxyphenyl) ketone] | 55.8 ± 7.7 | 57.9 | – | – |
| CC(C)=CCCC(C)=CCc1c(O)c(CC=C(C)CCC=C(C)C)c(O)c(C(=O)Cc2ccccc2)c1O [Compound 43, {3,5-bis(3,7-dimethyl-2,6-octadienyl)-2,4,6-trihydroxyphenyl} (phenylmethyl) ketone] | 11.3 ± 2.5 | 95 | – | – |
| CC(C)CC(=O)c1ccc(O)cc1O [Compound 52, (2,4-dihydroxyphenyl)(2-methylpropyl) ketone] | 94.3 ± 13.8 | 44.9 | – | – |
| CC(C)=CCOc1c(CC=C(C)C)c(C)c(C(=O)CC(C)C)c(O)c1CC=C(C)C [Compound 51, {3,5-bis(3-methyl-2-butenyl)-2-hydroxy-6-methyl-4-(3-methyl-2-butenyloxy)phenyl} (2-methylpropyl) ketone] | 102.7 ± 6.2 | 42.8 | – | – |
| CC(=O)C1=C(O)C(CC=C(C)C)=C(O)C(O)(CC=C(C)C)C1=O (stereo not drawn) [Compound 30, 2,4-bis(3-methyl-2-butenyl)-6-(1-oxoethyl)-2,3,5-trihydroxycyclohexa-3,5-dienone] | 21.4 ± 3.9 | 78.2 | – | – |
| CC(C)=CCCC(C)=CCC1=C(O)C(CC=C(C)CCC=C(C)C)(CC=C(C)CCC=C(C)C)C(=O)C(C(=O)CC(C)C)=C1O (stereo not drawn) [Compound 20, 3,5-dihydroxy-6-(3-methyl-1-oxobutyl)-2,2,4-tris(3,7-dimethyl-2,6-octadienyl)cyclohexa-3,5-dienone] | 3.0 ± 1.3 | 98.4 | – | – |
| CC(C)=CCc1c(O)c(CC=C(C)C)c(O)c(C(=O)Cc2ccccc2)c1O [Compound 39, {3,5-bis(3-methyl-2-butenyl)-2,4,6-trihydroxyphenyl} (phenylmethyl) ketone] | 49.2 ± 9.4 | 72.6 | – | – |
| CC(C)=CCC1=C(O)C(CC=C(C)C)(CC=C(C)C)C(=O)C(C(=O)CC(C)C)=C1O [Compound 16, 3,5-dihydroxy-6-(3-methyl-1-oxobutyl)-2,2,4-tris(3-methyl-2-butenyl)cyclohexa-3,5-dienone] | 0 | 100 | – | – |
| CC(C)=CCc1c(O)ccc(C(=O)CC(C)C)c1O [Compound 54, (2,4-dihydroxy-3-(3-methyl-2-butenyl)phenyl) (2-methylpropyl) ketone] | 66.5 ± 9.7 | 61.2 | – | – |
| CC(C)=CCCC(C)=CCc1c(O)cc(O)c(C(=O)Cc2ccccc2)c1O [Compound 46, {3-(3,7-dimethyl-2,6-octadienyl)-2,4,6-trihydroxyphenyl} (phenylmethyl) ketone] | 125.3 ± 12.6 | 44.3 | – | – |
| CC(C)=CCc1c(O)cc(O)c(C(=O)C(C)C)c1O [Compound 14, {3-(3-methyl-2-butenyl)-2,4,6-trihydroxyphenyl} (2-propyl) ketone] | 26.0 ± 2.6 | 67.5 | – | – |
| CC(C)=CCC1=C(O)C(O)(CC=C(C)C)C(=O)C(C(=O)C(C)C)=C1O (stereo not drawn) [Compound 29, 2,4-bis(3-methyl-2-butenyl)-6-(2-methyl-1-oxopropyl)-2,3,5-trihydroxycyclohexa-3,5-dienone] | 20.3 ± 2.1 | 79.5 | – | – |
| CC(C)CC(=O)C1=C(O)C(Cc2ccccc2)=C(O)C(O)(Cc2ccccc2)C1=O (stereo not drawn) [Compound 33, 2,4-bisbenzyl-6-(3-methyl-1-oxobutyl)-2,3,5-trihydroxycyclohexa-3,5-dienone] | 9.8 ± 1.8 | 95.1 | – | – |
